# Patent publication US7135466B2 (Kirin Beer Kabushiki Kaisha, priority 1999, dated 2006)
# Read-outs that look alike come from different tables or passages of the source.
# How the values were obtained:
# PDGF-Ra = biological target: T1, PDGF-Ra (Homo sapiens, UniProt P16234); test: Inhibitory activity against PDGF-Ra phosphorylation by PDGF-AA stimulation using G292; type: cell-based; settings: for inhibition at 0.1 µM: G292, at 100 nM, read-out: PDGF (E) inhibition (%) at 100 nM; for IC50: > means inhibition at indicated concentration not more than 50%, < and << not less than 50%, read-out: PDGF (E) IC50
# T1 construct: host or cells: G-292 human osteosarcoma cells
# T1 sequence (P16234 24-1089): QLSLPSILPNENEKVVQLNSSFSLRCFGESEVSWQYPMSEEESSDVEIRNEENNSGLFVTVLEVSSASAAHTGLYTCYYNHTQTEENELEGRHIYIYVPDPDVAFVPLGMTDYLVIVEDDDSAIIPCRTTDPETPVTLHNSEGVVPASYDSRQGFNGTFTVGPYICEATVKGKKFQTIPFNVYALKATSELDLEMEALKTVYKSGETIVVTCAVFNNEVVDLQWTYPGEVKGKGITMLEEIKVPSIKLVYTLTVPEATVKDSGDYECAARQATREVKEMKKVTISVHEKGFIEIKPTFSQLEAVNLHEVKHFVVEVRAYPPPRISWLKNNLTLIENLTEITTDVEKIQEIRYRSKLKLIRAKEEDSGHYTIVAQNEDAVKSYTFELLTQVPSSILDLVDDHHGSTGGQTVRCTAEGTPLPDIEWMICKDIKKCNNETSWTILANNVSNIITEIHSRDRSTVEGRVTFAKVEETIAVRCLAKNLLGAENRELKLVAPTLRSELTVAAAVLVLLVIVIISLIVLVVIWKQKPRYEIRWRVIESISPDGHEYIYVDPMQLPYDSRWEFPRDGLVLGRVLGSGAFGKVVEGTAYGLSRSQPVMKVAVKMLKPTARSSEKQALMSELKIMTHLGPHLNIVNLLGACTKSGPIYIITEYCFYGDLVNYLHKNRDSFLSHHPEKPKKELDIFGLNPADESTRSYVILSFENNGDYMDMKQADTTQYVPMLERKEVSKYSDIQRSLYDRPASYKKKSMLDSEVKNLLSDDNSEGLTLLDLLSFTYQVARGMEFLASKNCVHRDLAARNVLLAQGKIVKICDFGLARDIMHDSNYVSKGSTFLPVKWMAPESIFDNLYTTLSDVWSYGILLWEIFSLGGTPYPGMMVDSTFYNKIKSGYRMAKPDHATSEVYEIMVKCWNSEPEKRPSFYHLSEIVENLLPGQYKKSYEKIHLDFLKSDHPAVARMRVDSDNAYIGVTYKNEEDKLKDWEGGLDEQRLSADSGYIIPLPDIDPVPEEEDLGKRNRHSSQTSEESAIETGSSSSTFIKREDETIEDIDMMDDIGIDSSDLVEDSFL
# How it was run: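 Read-out: A450 from a sandwich ELISA (PY-20 capture, anti-PDGF-Ra detection, peroxidase colour) of lysates from G-292 cells given compound for 1 hr at 37 °C before a 5 min challenge with PDGF-AA at 50 ng/ml.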
# c-kit = biological target: T2, c-kit (Homo sapiens, UniProt P10721); test: Inhibitory activity against c-kit autophosphorylation (MO7e cells, h-SCF); type: cell-based; settings: for IC50: MO7e cells, read-out: c-kit IC50; for inhibition at 1 µM: Mo7e, at 1000 nM
# T2 construct: MO7e (human megakaryocytic leukemia cell line) which had been arrested for 20 hr; endogenous in cells; host or cells: MO7e human megakaryocytic leukemia cell line
# T2 sequence (P10721 26-976): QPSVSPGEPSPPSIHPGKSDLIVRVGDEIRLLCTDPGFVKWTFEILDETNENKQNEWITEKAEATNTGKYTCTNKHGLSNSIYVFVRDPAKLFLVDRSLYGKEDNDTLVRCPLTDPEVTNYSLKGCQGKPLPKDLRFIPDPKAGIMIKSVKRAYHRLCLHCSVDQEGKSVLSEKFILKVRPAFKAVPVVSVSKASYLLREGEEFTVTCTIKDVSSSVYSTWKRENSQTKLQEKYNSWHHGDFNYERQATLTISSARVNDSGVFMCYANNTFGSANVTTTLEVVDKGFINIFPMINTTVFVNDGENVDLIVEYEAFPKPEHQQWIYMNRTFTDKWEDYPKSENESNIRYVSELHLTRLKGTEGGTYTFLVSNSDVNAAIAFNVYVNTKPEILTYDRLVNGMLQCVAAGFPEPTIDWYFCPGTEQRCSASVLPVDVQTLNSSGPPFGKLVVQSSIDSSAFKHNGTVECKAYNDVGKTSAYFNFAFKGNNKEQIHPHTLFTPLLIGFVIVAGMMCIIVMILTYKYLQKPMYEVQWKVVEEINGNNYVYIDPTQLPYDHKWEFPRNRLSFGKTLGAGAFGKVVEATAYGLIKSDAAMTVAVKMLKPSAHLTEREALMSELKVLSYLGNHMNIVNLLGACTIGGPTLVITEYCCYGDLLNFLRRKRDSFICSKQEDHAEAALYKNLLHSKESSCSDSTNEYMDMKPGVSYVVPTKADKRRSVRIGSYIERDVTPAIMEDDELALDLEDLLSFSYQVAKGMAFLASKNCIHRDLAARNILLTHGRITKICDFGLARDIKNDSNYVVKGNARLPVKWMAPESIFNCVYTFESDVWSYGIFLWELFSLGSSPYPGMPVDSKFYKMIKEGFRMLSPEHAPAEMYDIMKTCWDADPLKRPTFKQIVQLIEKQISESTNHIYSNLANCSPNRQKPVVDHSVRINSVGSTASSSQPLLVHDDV
# How it was run: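 In this cellular autophosphorylation assay, compound-treated MO7e cells (1 hr) were challenged with human stem cell factor at 50 ng/ml for 5 min; detection relied on PY-20 capture and anti-c-kit/HRP immunodetection at 450 nm.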
# [1] = figure in parentheses in >100( )
# [2] = figure within parentheses in −( ) or >1000( )
Compound,IC50 (PDGF-Ra; Pharmacological Test Example 1),IC50 (c-kit; h-SCF 50 ng/ml),IC50 (PDGF-Ra),also measured
"COc1cc2ncnc(Oc3ccc(NC(=O)OCCCOc4ccc(F)cc4)c(C)c3C)c2cc1OC [Example 156, 3-(4-Fluorophenoxy)propyl N-{4-[(6,7-dimethoxy-4-quinazolinyl)oxy]-2,3-dimethylphenyl}-carbamate]",> 100 nM,33 nM,–,inhibition at 0.1 µM (PDGF-Ra; [1]): 48%
"CCC(C(=O)NC(=S)Nc1ccc(Oc2ccnc3cc(OC)c(OC)cc23)cc1)c1ccccc1 (centres unmarked) [Example 747, N-{4-[(6,7-Dimethoxy-4-quinolyl)oxy]phenyl}-N′-(2-phenylbutanoyl)thiourea]",–,–,35 nM,IC50 (c-kit; 50 ng/ml h-SCF): 759 nM
"COc1cc2nccc(Oc3ccc(NC(=S)NC(=O)c4ccc(C)cc4)c(Cl)c3)c2cc1OC [Example 1102, N-{2-Chloro-4-[(6,7-dimethoxy-4-quinolyl)oxy]phenyl}-N′-(4-methylbenzoyl)thiourea]",–,–,> 100 nM,inhibition at 0.1 µM (PDGF-Ra; [1]): 38%; inhibition at 1 µM (c-kit; figure in parentheses in −( )): 11%
COc1cc2nccc(Oc3cc(C)c(NC(=S)NCCN4CCCCC4)cc3C)c2cc1OC [Example 514],–,–,> 100 nM,inhibition at 0.1 µM (PDGF-Ra; figure within parentheses in >100( )): 31%; inhibition at 1 µM (c-kit; [2]): 29%
"COc1cccc(OCCCOC(=O)Nc2ccc(Oc3ncnc4cc(OC)c(OC)cc34)cc2)c1 [Example 164, 3-(3-Methoxyphenoxy)propyl N-{4-[(6,7-dimethoxy-4-quinazolinyl)oxy]phenyl}carbamate]",12 nM,50 nM,–,–
"CCCCC(=O)NC(=S)Nc1ccc(Oc2ccnc3cc(OC)c(OC)cc23)c(Cl)c1 [Example 719, N-{3-Chloro-4-[(6,7-dimethoxy-4-quinolyl)oxy]phenyl}-N′-pentanoylthiourea]",–,–,14 nM,IC50 (c-kit; 50 ng/ml h-SCF): 431 nM
"CCN(C(=O)OC1CCCCC1)c1ccc(Oc2ncnc3cc(OC)c(OC)cc23)cc1Cl [Example 475, Cyclohexyl N-{2-chloro-4-[(6,7-dimethoxy-4-quinazolinyl)oxy]phenyl}-N-ethylcarbamate]",–,–,15 nM,inhibition at 1 µM (c-kit; [2]): 24%
"N-{4-[(6,7-Dimethoxy-4-quinolyl)oxy]-2-methoxyphenyl}-N′-(1-homopiperidinyl)urea [Example 600]",–,–,< 10 nM,IC50 (c-kit; 50 ng/ml h-SCF): 208 nM
"COc1cc2nccc(Oc3ccc(NC(=O)OCCCOc4ccccc4F)c(C)c3C)c2cc1OC [Example 143, 3-(2-Fluorophenoxy)propyl N-{4-[(6,7-dimethoxy-4-quinolyl)oxy]-2,3-dimethylphenyl}carbamate]",< 10 nM,< 30 nM,–,–
"COc1cc2ncnc(Oc3ccc(NC(=O)OC(C)c4cc(F)c(F)cc4F)c(Cl)c3)c2cc1OC (centres unmarked) [Example 96, 1-(2,4,5-Trifluorophenyl)ethyl N-{2-chloro-4-[(6,7-dimethoxy-4-quinazolinyl)oxy]phenyl}carbamate]",38 nM,–,–,inhibition at 1 µM (c-kit; figure in parentheses in −( )): 13%
"COc1cc2nccc(Oc3ccc(NC(=O)Oc4ccccc4OC)c(C)c3C)c2cc1OC [Example 279, 2-Methoxyphenyl N-{4-[(6,7-dimethoxy-4-quinolyl)oxy]-2,3-dimethylphenyl}carbamate]",< 10 nM,< 30 nM,–,–
"COc1cccc(C(C)OC(=O)Nc2ccc(Oc3ccnc4cc(OC)c(OC)cc34)cc2)c1 (centres unmarked) [Example 52, 1-(3-Methoxyphenyl)ethyl N-{4-[(6,7-dimethoxy-4-quinolyl)oxy]phenyl}carbamate]",< 10 nM,273 nM,–,–
"COc1cc2nccc(Oc3ccc(NC(=S)NC(=O)c4ccccc4I)cc3F)c2cc1OC [Example 915, N-{4-[(6,7-Dimethoxy-4-quinolyl)oxy]-3-fluorophenyl}-N′-(2-iodobenzoyl)thiourea]",–,–,9 nM,IC50 (c-kit; h-SCF stimulation): 240 nM
"COc1cc2nccc(Oc3cc(C)c(NC(=O)OCc4ccc(C)cc4)cc3C)c2cc1OC [Example 255, 4-Methylbenzyl N-{4-[(6,7-dimethoxy-4-quinolyl)oxy]-2,5-dimethylphenyl}carbamate]",> 100 nM,309 nM,–,inhibition at 0.1 µM (PDGF-Ra; [1]): 36%
